# Tests used:
# Assay in all cases: Competitive isoTOP-ABPP in situ (fragment-treated cells)
# Assay type in all cases: cell-based
# [1] = biological target: cysteines in MDA-MB-231 and Ramos cells (Homo sapiens, UniProt Q5MNZ6); settings: for isoTOP-ABPP ratio Q5MNZ6_C63: 200 μM, insitu, 231
# [2] = biological target: T1, cysteines in MDA-MB-231 and Ramos cells (Homo sapiens, UniProt P09110); settings: 200 μM, insitu, 231
# T1 sequence (P09110 27-424): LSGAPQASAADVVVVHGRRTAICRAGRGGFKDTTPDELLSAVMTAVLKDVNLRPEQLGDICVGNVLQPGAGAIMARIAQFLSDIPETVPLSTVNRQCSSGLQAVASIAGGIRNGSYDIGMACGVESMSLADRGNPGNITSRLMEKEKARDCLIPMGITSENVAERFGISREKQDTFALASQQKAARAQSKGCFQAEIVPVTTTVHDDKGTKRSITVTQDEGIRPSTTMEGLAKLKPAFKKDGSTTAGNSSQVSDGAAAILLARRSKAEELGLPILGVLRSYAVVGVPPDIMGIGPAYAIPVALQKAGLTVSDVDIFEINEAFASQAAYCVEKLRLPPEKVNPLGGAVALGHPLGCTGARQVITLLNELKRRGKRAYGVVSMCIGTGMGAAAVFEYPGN
# [3] = biological target: T2, cysteines in MDA-MB-231 and Ramos cells (Homo sapiens, UniProt Q96C19)
# T2 sequence (Q96C19 1-240): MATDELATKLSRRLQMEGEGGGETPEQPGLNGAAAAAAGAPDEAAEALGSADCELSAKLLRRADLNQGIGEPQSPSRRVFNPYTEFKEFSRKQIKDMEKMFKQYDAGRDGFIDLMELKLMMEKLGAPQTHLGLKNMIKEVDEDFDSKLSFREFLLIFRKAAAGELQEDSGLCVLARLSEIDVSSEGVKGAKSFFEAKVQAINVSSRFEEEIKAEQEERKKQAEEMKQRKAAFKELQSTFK
# [4] = biological target: cysteines in MDA-MB-231 and Ramos cells (Homo sapiens, UniProt P35658); settings: for isoTOP-ABPP ratio P35658_C728: 200 μM, insitu, 231
# Sequence of cysteines in MDA-MB-231 and Ramos cells (Homo sapiens, UniProt P35658) (P35658 whole entry): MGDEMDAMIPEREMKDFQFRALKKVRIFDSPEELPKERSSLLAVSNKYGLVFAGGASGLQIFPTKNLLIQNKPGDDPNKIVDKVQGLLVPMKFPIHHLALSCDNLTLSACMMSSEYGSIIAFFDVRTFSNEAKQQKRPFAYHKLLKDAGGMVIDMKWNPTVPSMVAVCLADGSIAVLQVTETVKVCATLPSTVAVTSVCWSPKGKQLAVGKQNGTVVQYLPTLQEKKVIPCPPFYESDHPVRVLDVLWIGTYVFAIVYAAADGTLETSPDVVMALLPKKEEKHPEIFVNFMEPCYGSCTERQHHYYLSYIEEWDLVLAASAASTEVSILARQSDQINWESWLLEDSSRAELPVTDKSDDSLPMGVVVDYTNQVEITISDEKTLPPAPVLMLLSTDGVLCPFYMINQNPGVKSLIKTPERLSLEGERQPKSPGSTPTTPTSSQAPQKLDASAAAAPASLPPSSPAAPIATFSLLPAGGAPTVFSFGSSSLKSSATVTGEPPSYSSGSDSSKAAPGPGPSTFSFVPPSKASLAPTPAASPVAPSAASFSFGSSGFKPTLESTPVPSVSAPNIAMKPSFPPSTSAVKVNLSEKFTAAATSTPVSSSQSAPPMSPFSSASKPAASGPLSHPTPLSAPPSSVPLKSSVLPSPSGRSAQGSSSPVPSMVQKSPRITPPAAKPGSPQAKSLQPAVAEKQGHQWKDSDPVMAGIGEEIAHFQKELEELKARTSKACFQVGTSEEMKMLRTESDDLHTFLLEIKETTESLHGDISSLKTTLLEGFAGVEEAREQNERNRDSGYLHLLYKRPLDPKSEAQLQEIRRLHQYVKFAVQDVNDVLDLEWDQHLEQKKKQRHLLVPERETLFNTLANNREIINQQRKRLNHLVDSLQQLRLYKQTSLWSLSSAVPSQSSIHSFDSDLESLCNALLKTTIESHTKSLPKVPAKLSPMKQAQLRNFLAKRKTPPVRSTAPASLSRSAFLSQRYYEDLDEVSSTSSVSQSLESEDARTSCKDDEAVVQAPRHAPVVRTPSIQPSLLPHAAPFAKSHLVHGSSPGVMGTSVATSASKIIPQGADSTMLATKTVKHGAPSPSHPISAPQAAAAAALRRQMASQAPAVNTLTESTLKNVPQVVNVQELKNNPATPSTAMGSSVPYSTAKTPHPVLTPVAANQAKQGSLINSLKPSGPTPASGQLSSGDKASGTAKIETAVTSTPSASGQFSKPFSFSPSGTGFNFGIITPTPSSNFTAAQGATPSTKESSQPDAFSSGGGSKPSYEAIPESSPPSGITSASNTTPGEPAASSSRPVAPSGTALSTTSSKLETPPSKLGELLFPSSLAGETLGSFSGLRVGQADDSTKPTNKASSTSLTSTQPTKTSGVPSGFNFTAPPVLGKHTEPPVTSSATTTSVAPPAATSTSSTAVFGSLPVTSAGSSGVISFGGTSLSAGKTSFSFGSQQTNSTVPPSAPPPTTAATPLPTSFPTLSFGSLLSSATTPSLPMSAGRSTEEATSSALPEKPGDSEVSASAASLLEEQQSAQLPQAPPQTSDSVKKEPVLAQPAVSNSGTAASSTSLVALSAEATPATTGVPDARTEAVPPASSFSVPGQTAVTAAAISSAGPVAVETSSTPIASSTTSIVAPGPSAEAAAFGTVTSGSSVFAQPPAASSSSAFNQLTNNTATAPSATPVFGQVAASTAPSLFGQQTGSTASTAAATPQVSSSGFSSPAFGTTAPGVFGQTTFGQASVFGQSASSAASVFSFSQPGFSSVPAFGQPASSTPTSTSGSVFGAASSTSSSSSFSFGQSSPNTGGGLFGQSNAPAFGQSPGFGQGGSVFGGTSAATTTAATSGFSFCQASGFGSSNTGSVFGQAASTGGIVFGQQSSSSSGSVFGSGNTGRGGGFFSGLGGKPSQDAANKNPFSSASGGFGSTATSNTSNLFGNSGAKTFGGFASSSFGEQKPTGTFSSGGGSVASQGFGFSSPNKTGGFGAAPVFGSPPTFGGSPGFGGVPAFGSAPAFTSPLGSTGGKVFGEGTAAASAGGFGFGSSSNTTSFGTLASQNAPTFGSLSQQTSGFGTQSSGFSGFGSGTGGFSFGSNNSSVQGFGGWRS
# [5] = biological target: T3, cysteines in MDA-MB-231 and Ramos cells (Homo sapiens, UniProt Q2NL82); settings: for isoTOP-ABPP ratio Q2NL82_C126 / isoTOP-ABPP ratio, cysteine Q2NL82_C126: 200 μM, insitu, 231
# T3 sequence (Q2NL82 1-804): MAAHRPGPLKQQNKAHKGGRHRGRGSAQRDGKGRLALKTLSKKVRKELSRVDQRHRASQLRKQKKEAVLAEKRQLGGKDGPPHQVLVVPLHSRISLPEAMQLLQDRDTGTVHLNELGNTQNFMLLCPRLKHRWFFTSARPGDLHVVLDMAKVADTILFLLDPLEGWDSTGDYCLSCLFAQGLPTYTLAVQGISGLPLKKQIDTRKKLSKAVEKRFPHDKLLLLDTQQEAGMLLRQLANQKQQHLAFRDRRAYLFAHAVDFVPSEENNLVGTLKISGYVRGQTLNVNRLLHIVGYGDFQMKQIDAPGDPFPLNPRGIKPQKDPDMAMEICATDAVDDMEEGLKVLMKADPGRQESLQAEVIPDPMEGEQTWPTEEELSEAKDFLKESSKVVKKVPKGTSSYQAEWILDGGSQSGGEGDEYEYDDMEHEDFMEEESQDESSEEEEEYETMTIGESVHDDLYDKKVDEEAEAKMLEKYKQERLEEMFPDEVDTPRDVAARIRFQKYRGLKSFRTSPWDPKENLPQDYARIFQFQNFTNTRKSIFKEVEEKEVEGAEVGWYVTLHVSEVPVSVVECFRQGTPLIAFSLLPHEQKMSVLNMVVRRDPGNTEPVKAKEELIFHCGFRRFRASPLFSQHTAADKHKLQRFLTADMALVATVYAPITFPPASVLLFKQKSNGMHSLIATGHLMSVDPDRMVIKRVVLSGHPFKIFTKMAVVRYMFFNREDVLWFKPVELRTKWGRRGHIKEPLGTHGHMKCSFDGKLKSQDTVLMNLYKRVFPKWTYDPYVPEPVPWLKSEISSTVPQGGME
# [6] = biological target: cysteines in MDA-MB-231 and Ramos cells (Homo sapiens, UniProt Q15149)
# [7] = biological target: cysteines in MDA-MB-231 and Ramos cells (Homo sapiens, UniProt P53634); settings: for isoTOP-ABPP ratio, cysteine P53634_C258: 200 μM, insitu, 231
# Sequence of cysteines in MDA-MB-231 and Ramos cells (Homo sapiens, UniProt P53634) (P53634 25-463): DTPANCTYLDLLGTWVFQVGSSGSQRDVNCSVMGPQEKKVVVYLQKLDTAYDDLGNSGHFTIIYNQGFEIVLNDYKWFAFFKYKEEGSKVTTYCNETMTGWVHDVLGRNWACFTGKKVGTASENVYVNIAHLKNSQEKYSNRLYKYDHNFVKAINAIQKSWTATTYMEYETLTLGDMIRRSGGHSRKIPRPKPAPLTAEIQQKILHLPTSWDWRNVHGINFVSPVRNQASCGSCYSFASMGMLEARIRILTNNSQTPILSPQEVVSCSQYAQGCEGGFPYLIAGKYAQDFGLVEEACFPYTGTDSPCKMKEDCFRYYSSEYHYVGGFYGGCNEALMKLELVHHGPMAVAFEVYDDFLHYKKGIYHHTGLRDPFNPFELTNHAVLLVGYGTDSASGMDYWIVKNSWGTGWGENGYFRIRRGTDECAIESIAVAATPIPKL
# [8] = biological target: T4, cysteines in MDA-MB-231 and Ramos cells (Homo sapiens, UniProt P51649); settings: for isoTOP-ABPP ratio P51649_C340: 200 μM, insitu
# T4 sequence (P51649 48-535): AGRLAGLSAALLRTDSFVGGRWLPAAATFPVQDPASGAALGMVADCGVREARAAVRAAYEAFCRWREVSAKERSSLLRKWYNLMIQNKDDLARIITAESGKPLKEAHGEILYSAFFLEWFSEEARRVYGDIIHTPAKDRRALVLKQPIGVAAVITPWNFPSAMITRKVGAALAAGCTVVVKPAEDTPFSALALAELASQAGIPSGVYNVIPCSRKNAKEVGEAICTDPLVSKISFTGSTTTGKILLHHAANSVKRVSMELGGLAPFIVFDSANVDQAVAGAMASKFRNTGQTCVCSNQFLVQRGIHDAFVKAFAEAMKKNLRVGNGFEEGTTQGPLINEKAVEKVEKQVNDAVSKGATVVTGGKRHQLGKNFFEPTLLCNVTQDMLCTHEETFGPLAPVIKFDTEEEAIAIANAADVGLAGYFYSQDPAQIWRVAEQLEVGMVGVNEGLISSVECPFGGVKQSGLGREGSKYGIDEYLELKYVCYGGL
# [9] = biological target: T5, cysteines in MDA-MB-231 and Ramos cells (Homo sapiens, UniProt O43175); settings: 200 μM, insitu
# T5 sequence (O43175 1-533): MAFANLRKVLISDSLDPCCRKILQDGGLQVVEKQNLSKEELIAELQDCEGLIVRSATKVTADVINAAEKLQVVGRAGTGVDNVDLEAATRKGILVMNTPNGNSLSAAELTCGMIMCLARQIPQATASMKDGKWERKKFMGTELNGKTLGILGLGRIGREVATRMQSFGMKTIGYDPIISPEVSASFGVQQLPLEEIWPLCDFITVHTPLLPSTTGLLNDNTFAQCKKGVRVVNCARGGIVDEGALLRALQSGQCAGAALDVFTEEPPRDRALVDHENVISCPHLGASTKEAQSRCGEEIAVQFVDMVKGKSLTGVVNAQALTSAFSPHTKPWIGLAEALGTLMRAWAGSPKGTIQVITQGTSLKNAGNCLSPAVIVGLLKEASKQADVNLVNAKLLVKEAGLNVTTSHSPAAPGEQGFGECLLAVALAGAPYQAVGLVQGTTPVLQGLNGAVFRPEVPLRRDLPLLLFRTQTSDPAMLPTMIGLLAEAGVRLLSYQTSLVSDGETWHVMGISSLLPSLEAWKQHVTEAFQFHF
# Sequence of cysteines in MDA-MB-231 and Ramos cells (Homo sapiens, UniProt Q5MNZ6) (Q5MNZ6 whole entry): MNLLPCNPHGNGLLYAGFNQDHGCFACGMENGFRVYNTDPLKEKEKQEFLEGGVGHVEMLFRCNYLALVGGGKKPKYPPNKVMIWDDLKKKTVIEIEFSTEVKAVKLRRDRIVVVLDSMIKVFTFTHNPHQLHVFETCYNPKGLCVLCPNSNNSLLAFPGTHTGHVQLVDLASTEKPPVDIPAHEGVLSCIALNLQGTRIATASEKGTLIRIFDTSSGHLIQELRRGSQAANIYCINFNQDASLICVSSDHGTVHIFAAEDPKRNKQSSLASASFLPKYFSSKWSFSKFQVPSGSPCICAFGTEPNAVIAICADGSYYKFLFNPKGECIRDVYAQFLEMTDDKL
smiles,measurement,setting,value
COc1ccccc1OCCNC(=O)CCl [compound 28],isoTOP-ABPP ratio Q5MNZ6_C63,[1],1.7
same,isoTOP-ABPP ratio P09110_C381,[2],0.8
Cc1ccc(C=C(C#N)C(=O)NCCN2CCOCC2)cc1 [compound 41],isoTOP-ABPP ratio Q96C19_C172,"[3]; 200 μM, insitu, 231",0.5
same,isoTOP-ABPP ratio Q5MNZ6_C63,[1],0.8
same,isoTOP-ABPP ratio P09110_C381,[2],0.9
same,isoTOP-ABPP ratio P35658_C728,[4],1.1
same,isoTOP-ABPP ratio Q2NL82_C126,[5],0.8
same,isoTOP-ABPP ratio Q15149_C4574,"[6]; 200 μM, insitu, 231",0.9
O=C(CCl)NC(=O)NC12CC3CC(CC(C3)C1)C2 [compound 12],isoTOP-ABPP ratio Q96C19_C172,"[3]; 200 μM, insitu, 231",0.9
same,isoTOP-ABPP ratio Q5MNZ6_C63,[1],20.0
same,"isoTOP-ABPP ratio, cysteine P09110_C381",[2],4.5
same,"isoTOP-ABPP ratio, cysteine P53634_C258",[7],13.4
same,"isoTOP-ABPP ratio, cysteine Q2NL82_C126",[5],20.0
same,isoTOP-ABPP ratio P51649_C340,[8]; 231,20.0
O=C(CCl)NCCc1c[nH]c2ccccc12 [compound 13],isoTOP-ABPP ratio Q96C19_C172,"[3]; 200 μM, insitu, 231",0.7
same,isoTOP-ABPP ratio Q5MNZ6_C63,[1],1.1
same,"isoTOP-ABPP ratio, cysteine P53634_C258",[7],1.6
same,isoTOP-ABPP ratio P35658_C728,[4],1.0
same,"isoTOP-ABPP ratio, cysteine Q15149_C4574","[6]; 200 μM, insitu, 231",1.4
same,"isoTOP-ABPP ratio, cysteine O43175_C369",[9]; ramos,2.0
same,isoTOP-ABPP ratio P51649_C340,[8]; 231,1.1
same,isoTOP-ABPP ratio P51649_C340,[8]; ramos,1.3
O=C(CCl)N1CCC(Cc2ccccc2)CC1 [compound 9],isoTOP-ABPP reactivity Q96C19_C172 EFHD2,"[3]; 200 μM, insitu, 231",2.8
same,isoTOP-ABPP reactivity Q15149_C4574 PLEC,"[6]; 200 μM, insitu, 231",0.8
COc1ccc(C2CC(c3cccs3)=NN2C(=O)CCl)cc1 (stereo not shown) [compound 4],isoTOP-ABPP reactivity Q96C19_C172 EFHD2,[3]; 100 μM in situ 231,5.3
same,isoTOP-ABPP reactivity Q5MNZ6_C63 WDR45L,[1]; 100 μM in situ 231,2.0
same,isoTOP-ABPP reactivity P53634_C258 CTSC,[7]; 100 μM in situ 231,1.2
same,isoTOP-ABPP reactivity P35658_C728 NUP214,[4]; 100 μM in situ 231,1.7
same,isoTOP-ABPP reactivity Q2NL82_C126 TSR1,[5]; 100 μM in situ 231,13.8
same,isoTOP-ABPP reactivity Q15149_C4574 PLEC,[6]; 100 μM in situ 231,4.2
same,isoTOP-ABPP reactivity P51649_C340 ALDH5A1,[8]; 100 μM in situ 231,1.0
O=C(CCl)NC12CC3CC(CC(C3)C1)C2 [compound 21],isoTOP-ABPP ratio Q5MNZ6_C63,[1],0.8
same,"isoTOP-ABPP ratio, cysteine P53634_C258",[7],2.8
same,isoTOP-ABPP ratio P35658_C728,[4],1.3
same,"isoTOP-ABPP ratio, cysteine Q2NL82_C126",[5],1.5
same,"isoTOP-ABPP ratio, cysteine Q15149_C4574","[6]; 200 μM, insitu, 231",1.0
same,"isoTOP-ABPP ratio, cysteine O43175_C369",[9]; 231,1.0
same,isoTOP-ABPP ratio P51649_C340,[8]; 231,1.2
O=C(CCl)Nc1cccc2ncccc12 [compound 51],isoTOP-ABPP ratio Q96C19_C172,"[3]; 200 μM, insitu, 231",1.2
same,isoTOP-ABPP ratio Q2NL82_C126,[5],1.9
